Data reported in US4269717A, “Boiler additives for oxygen scavenging” (priority 1980, dated 1981).
Read-outs that look alike come from different tables or passages of the source.

What was measured:
[1] = Carbohydrazide low temperature hydrolysis (Table V); type: physicochemical; set-up: Hydrazine By Hydrolysis: unit not given here; details: for Hydrazine By Hydrolysis / Percent Hydrolysis / ppm Hydrazine: 1,000 ppm
Procedure: Low temperature hydrolysis studies of carbohydrazide were carried out using reagent grade carbohydrazide containing approximately 2.7±0.1% hydrazine as an impurity. A 1,000 ppm carbohydrazide solution and a 100 ppm hydrazine solution were prepared with deaerated, deionized water. Half of the carbohydrazide solution was adjusted to pH 10.2 with sodium hydroxide and the other half was left at its original pH of 6.9. The solutions were poured into Nessler tubes to overflowing and sealed with stoppers fitted with hypodermic needles to allow pressure release with minimum air contact. Four samples of both of the carbohydrazide solutions and two samples of the hydrazine control were stored at varying temperatures for varying periods of time, all as reported in Table V below.

Solubility in water = type: physicochemical
[2] = Procedure: A second more extensive group of potential oxygen scavengers were compared, again using a small laboratory boiler and oxygen saturated feed water containing sodium hydroxide. […] The hydrazine salts among this group are no less toxic than hydrazine and therefore were eliminated from further study. […] In addition, the carbohydrazide was preferred because it is a solid at room temperature and could therefore be used in dry formulations.
INITIAL SCREENING AT 227-239° F.

[3] = type: physicochemical; details: for Final Hydrazine Level / Percent Hydrolysis: fed at 100 ppm, pH 8.0, 600 p.s.i.
Description: High temperature hydrolysis studies were next carried out again using reagent grade carbohydrazide containing approximately 2% hydrazine as an impurity. The apparatus used in this work was the once-through experimental apparatus for simulating boiler water transport referred to in Example 2, with feedwater pH set at 8.0 and system pressure at 600 p.s.i.
^1 Carbohydrazide was fed at 100 ppm; complete hydrolysis of the
carbohydrazide would theoretically yield 71.1 ppm N2 H4.

[4] = Commercial scale boiler comparison of oxygen scavenging
Procedure: Commercial scale comparisons were made between carbohydrazide and hydrazine. The tests were run on a system including a deaerator which treats a mixture of feed water and condensate at 60 p.s.i. and 300°-310° F. before it is fed to a first stage heater at 160 p.s.i. and 360°-366° F. and a second stage heater at 400 p.s.i. and 446°-450° F. The second stage heater then feeds into three boilers: a combination boiler at 1,275 p.s.i., a first power boiler at 1,275 p.s.i. and a second power boiler at 400 p.s.i. The treatment chemicals were fed alternatively at the deaerator and just down line from it.

[5] = Corrosion control under static storage conditions; details: 160 moles or more of carbohydrazide per mole of oxygen
Description: The amount of carbohydrazide required to effectively scavenge oxygen from the boiler water is dependent upon the amount of oxygen actually present therein. It is generally desirable that at least 0.5 moles of carbohydrazide be used per mole of oxygen. These minimum levels of carbohydrazide will have the added benefit of effectively passivating metal surfaces. Of course, levels of carbohydrazide considerably in excess of 0.5 moles per mole of oxygen may be required, particularly for treating boiler water under static storage conditions.

[6] = Metal passivation in experimental firerod boiler (Table IV)
Description: Metal passivation studies were undertaken using an experimental firerod boiler under the following test conditions:
10 boiler water concentrations
40 ppm M alkalinity (as CaCO3)
A blank containing no oxygen scavenger was followed by test runs with hydrazine, carbohydrazide, and sodium sulfite.
*Tubes ranked by appearance of metal surface.

[7] = pH 6.9, Room Temp. (77° F.), 2 days
[8] = pH 6.9, Room Temp. (77° F.), 4 days
[9] = pH 6.9, Room Temp. (77° F.), 6 days
[10] = pH 10.2, Room Temp. (77° F.), 2 days
[11] = pH 10.2, Room Temp. (77° F.), 4 days
[12] = pH 10.2, Room Temp. (77° F.), 6 days
[13] = 282 °F., residence time 14.5 min
[14] = 343 °F., residence time 14.5 min
[15] = 400 °F., residence time 14.5 min
[16] = 400 °F., residence time 15.0 min

NNC(=O)NN [Carbohydrazide, N, N' diaminourea]
Hydrolysis at 120° F. ([1]; 120° F.): no hydrolysis occured | Hydrolysis above the original free hydrazine level ([1]; 180° F.): 3% | Hydrazine By Hydrolysis ([1]; pH 6.9, 120° F., 2 days): 0 | Percent Hydrolysis ([1]; pH 6.9, 120° F., 2 days): 2.7% | ppm Hydrazine ([1]; pH 6.9, 120° F., 2 days): 18.9 ppm | Hydrazine By Hydrolysis ([1]; pH 6.9, 120° F., 4 days): 0 | Percent Hydrolysis ([1]; pH 6.9, 120° F., 4 days): 2.6% | ppm Hydrazine ([1]; pH 6.9, 120° F., 4 days): 18.8 ppm | Hydrazine By Hydrolysis ([1]; pH 6.9, 120° F., 6 days): 0 | Percent Hydrolysis ([1]; pH 6.9, 120° F., 6 days): 2.6% | ppm Hydrazine ([1]; pH 6.9, 120° F., 6 days): 18.3 ppm | Hydrazine By Hydrolysis ([1]; pH 6.9, 180° F., 2 days): 1.3 | Percent Hydrolysis ([1]; pH 6.9, 180° F., 2 days): 4.0% | ppm Hydrazine ([1]; pH 6.9, 180° F., 2 days): 28.4 ppm | Hydrazine By Hydrolysis ([1]; pH 6.9, 180° F., 4 days): 2.3 | Percent Hydrolysis ([1]; pH 6.9, 180° F., 4 days): 5.0% | ppm Hydrazine ([1]; pH 6.9, 180° F., 4 days): 35.4 ppm | Hydrazine By Hydrolysis ([1]; pH 6.9, 180° F., 6 days): 3.0 | Percent Hydrolysis ([1]; pH 6.9, 180° F., 6 days): 5.7% | ppm Hydrazine ([1]; pH 6.9, 180° F., 6 days): 40.2 ppm | Hydrazine By Hydrolysis [1, 7]: 0 | Percent Hydrolysis [1, 7]: 2.8% | ppm Hydrazine [1, 7]: 19.7 ppm | Hydrazine By Hydrolysis [1, 8]: 0 | Percent Hydrolysis [1, 8]: 2.7% | ppm Hydrazine [1, 8]: 19.1 ppm | Hydrazine By Hydrolysis [1, 9]: 0 | Percent Hydrolysis [1, 9]: 2.6% | ppm Hydrazine [1, 9]: 18,7 ppm | Hydrazine By Hydrolysis ([1]; pH 6.9, time 0): 0 | Percent Hydrolysis ([1]; pH 6.9, time 0): 2.7% | ppm Hydrazine ([1]; pH 6.9, time 0): 19.0 ppm | Hydrazine By Hydrolysis ([1]; pH 10.2, 120° F., 2 days): 0 | Percent Hydrolysis ([1]; pH 10.2, 120° F., 2 days): 2.8% | ppm Hydrazine ([1]; pH 10.2, 120° F., 2 days): 20.0 ppm | Hydrazine By Hydrolysis ([1]; pH 10.2, 120° F., 4 days): 0 | Percent Hydrolysis ([1]; pH 10.2, 120° F., 4 days): 2.8% | ppm Hydrazine ([1]; pH 10.2, 120° F., 4 days): 19.8 ppm | Hydrazine By Hydrolysis ([1]; pH 10.2, 120° F., 6 days): 0 | Percent Hydrolysis ([1]; pH 10.2, 120° F., 6 days): 2.7% | ppm Hydrazine ([1]; pH 10.2, 120° F., 6 days): 19.3 ppm | Hydrazine By Hydrolysis ([1]; pH 10.2, 180° F., 2 days): 1.4 | Percent Hydrolysis ([1]; pH 10.2, 180° F., 2 days): 4.1% | ppm Hydrazine ([1]; pH 10.2, 180° F., 2 days): 29.0 ppm | Hydrazine By Hydrolysis ([1]; pH 10.2, 180° F., 4 days): 2.1 | Percent Hydrolysis ([1]; pH 10.2, 180° F., 4 days): 4.8% | ppm Hydrazine ([1]; pH 10.2, 180° F., 4 days): 34.2 ppm | Hydrazine By Hydrolysis ([1]; pH 10.2, 180° F., 6 days): 2.7 | Percent Hydrolysis ([1]; pH 10.2, 180° F., 6 days): 5.4% | ppm Hydrazine ([1]; pH 10.2, 180° F., 6 days): 38.6 ppm | Hydrazine By Hydrolysis [1, 10]: 0 | Percent Hydrolysis [1, 10]: 2.8% | ppm Hydrazine [1, 10]: 20.2 ppm | Hydrazine By Hydrolysis [1, 11]: 0.1 | Percent Hydrolysis [1, 11]: 2.9% | ppm Hydrazine [1, 11]: 20.5 ppm | Hydrazine By Hydrolysis [1, 12]: 0 | Percent Hydrolysis [1, 12]: 2.8% | ppm Hydrazine [1, 12]: 20.1 ppm | Hydrazine By Hydrolysis ([1]; pH 10.2, time 0): 0 | Percent Hydrolysis ([1]; pH 10.2, time 0): 2.7% | ppm Hydrazine ([1]; pH 10.2, time 0): 19.1 ppm | pH dependence of hydrolysis values ([1]; pH range of 7-10): did not vary significantly | Hydrolysis at room temperature ([1]; room temperature): no hydrolysis occured | Solubility in water (Solubility in water): freely soluble in water | Scavenger ranking of the remaining two compounds [2]: the best scavenger | Oxygen scavenging activity relative to hydrazine ([2]; 227-239° F., Table II): activity comparable to hydrazine | % O2 Removal ([2]; initial O2 40 ppb, 227-239° F.): 87.5% | Final O2 ([2]; initial O2 40 ppb, 227-239° F.): 5 ppb | Hydrolysis at 220° F. ([3]; 220° F.): minimal | Hydrolysis at 282° F. ([3]; 282° F.): minimal | Final Hydrazine Level [3, 13]: 7 ppm | Percent Hydrolysis [3, 13]: 7.0% | Hydrolysis at 340° F. through 400° F. ([3]; 340° F. through 400° F.): still not complete | Final Hydrazine Level [3, 14]: 45 ppm | Percent Hydrolysis [3, 14]: 60.5% | Final Hydrazine Level [3, 15]: 59 ppm | Percent Hydrolysis [3, 15]: 80.2% | Final Hydrazine Level [3, 16]: 61 ppm | Percent Hydrolysis [3, 16]: 83.0% | Hydrazine found ([3]; about 220° F.): less than 7% | Percent Hydrolysis ([3]; residence time 14.5 min): 0% | Final Hydrazine Level ([3]; temperature 21 °F. (so in the source), residence time 14.5 min): 2 ppm | Oxygen scavenging relative to hydrazine, various points ([4]; carbohydrazide levels half those of hydrazine): comparable or superior to the hydrazine | Oxygen scavenging relative to hydrazine at 360° F. ([4]; just past first stage heater, carbohydrazide at 50% of hydrazine level): scavenged the oxygen more efficiently than the hydrazine | Oxygen scavenging relative to hydrazine at 446° F. ([4]; just past second stage heater, carbohydrazide at 50% of hydrazine level): scavenged the oxygen more efficiently than the hydrazine | Oxygen scavenging relative to hydrazine at 300° F. ([4]; just past the deaerator, carbohydrazide at 50% of hydrazine level): comparable with the hydrazine | Corrosion control under static conditions [5]: effective in controlling corrosion | Tube Rank (by appearance of metal surface) ([6]; dosage 1 ppm, 600 p.s.i., 48 hour test): 1 | Metal passivation effectiveness ([6]; under the test conditions, Table IV): the most effective metal passivator
